From ChEMBL document CHEMBL5335847, “Model of P-Glycoprotein Ligand Binding and Validation with Efflux Substrate Matched Pairs” (J Med Chem, 2024)

Key:
[1] = molecular target: Mu-type opioid receptor (Rattus norvegicus, UniProt P33535); assay: Antagonist activity at mu-opioid receptor in rat thalamus membrane assessed as inhibition of DAMGO-stimulated [35S]GTPgammaS binding incubated for 2 hrs by liquid scintillation spectrophotometry; format: functional, cell membranes
[2] = molecular target: P-gp (ABCB1) (Homo sapiens, UniProt P08183); assay: Substrate activity at P-gp in human Caco-2 cells assessed as efflux ratio measured for 2 hrs by HPLC analysis; format: ADME, cell-based
[3] = Apparent permeability of the compound across apical to basolateral side in human Caco-2 cells measured for 2 hrs by HPLC analysis; format: ADME, cell-based

Chain of Mu-type opioid receptor (P33535 whole entry): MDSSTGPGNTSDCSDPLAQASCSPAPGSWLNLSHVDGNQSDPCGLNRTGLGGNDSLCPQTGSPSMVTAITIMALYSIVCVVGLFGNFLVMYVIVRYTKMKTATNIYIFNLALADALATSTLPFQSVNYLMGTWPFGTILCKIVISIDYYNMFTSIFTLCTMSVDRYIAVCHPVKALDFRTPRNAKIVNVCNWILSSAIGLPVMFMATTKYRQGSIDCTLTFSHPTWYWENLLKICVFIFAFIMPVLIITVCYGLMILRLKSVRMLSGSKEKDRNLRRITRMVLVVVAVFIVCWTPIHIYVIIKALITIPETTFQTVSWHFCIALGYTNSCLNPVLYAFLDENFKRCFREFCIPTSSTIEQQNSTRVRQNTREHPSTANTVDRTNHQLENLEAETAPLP
Chain of P-gp (ABCB1) (P08183 whole entry): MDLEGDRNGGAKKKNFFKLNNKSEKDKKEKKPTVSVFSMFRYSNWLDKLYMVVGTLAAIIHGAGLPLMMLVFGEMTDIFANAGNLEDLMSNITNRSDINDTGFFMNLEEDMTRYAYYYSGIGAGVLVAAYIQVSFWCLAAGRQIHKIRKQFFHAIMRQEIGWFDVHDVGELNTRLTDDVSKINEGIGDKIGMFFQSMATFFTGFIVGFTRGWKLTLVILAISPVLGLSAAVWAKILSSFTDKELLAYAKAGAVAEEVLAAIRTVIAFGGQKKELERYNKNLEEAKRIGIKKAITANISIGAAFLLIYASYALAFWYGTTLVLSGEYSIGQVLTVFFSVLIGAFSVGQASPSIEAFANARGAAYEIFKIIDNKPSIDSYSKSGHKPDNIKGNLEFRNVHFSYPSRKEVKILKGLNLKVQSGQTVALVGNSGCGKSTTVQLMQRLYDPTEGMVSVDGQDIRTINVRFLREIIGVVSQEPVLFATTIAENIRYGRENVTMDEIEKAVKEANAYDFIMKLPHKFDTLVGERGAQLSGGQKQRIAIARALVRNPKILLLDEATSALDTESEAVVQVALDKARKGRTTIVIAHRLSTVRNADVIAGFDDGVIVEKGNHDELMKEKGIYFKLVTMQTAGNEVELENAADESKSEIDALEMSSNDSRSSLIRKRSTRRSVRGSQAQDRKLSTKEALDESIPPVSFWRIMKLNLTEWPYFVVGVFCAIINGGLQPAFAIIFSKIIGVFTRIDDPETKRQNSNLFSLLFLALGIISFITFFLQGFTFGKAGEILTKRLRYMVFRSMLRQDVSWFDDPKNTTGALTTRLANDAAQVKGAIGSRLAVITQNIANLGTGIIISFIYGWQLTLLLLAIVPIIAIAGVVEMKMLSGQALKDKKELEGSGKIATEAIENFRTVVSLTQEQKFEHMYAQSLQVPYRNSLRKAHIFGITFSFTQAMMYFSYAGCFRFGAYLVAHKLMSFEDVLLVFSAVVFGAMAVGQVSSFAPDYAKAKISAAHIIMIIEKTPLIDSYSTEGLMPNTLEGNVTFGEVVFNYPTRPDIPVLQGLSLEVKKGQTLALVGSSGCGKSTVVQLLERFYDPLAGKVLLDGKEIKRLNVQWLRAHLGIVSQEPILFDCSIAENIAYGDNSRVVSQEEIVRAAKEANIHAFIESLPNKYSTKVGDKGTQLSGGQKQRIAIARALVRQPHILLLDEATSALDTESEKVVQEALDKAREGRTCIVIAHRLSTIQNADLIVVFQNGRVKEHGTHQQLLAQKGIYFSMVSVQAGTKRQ

Compound	Ki [1] [nM]	efflux ratio at 2 h [2]	Papp A→B at 2 h [3] [×10⁻⁶ cm/s]
O=C(N[C@@H]1CC[C@@]2(O)[C@H]3Cc4ccc(O)c5c4[C@@]2(CCN3CC2CC2)[C@H]1O5)c1cc2ccccc2cn1	3.5	1.3	3
O=C(N[C@@H]1CC[C@@]2(O)[C@H]3Cc4ccc(O)c5c4[C@@]2(CCN3CC2CC2)[C@H]1O5)c1ccncc1	4.8	> 10	< 0.7
